The record followed here is PubChem BioAssay (NCI).

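Tested at 5 concentrations; 48 h exposure; 96-well plates; endpoints linearly interpolated, else capped at highest concentration. GI50 is the concentration that inhibits growth by half. At the TGI there is no net growth.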

Some test systems named below: HCT-116 colon; A549 NSCLC; K-562 leukemia; A498 renal; CCRF-CEM leukemia; OVCAR-8 ovarian; HCT-15 colon; T-47D breast; SK-MEL-2 melanoma; PC-3 prostate.
Assay in all cases: growth of human tumour cells (NCI), 48 h

In the case of `O=C(Nc1cccc(NS(=O)(=O)c2ccc(F)cc2)c1)c1ccc(-c2ccccc2)cc1`, the GI50 in the test on HCT-116 colon was 3.48 µM; in the test with A549 NSCLC, 3.34 µM; with K-562 leukemia, 2.91 µM; in the test on A498 renal it was 4.69 µM; in the test with CCRF-CEM leukemia, 3.46 µM; in the test with OVCAR-8 ovarian, 2.88 µM. Moreover, the GI50 is 2.86 µM in the test with HCT-15 colon, 2.28 µM in the test on T-47D breast, 2.42 µM with SK-MEL-2 melanoma and 2.81 µM in the test on PC-3 prostate. Further, the TGI in the test on HCT-116 colon was 13.4 µM; in the test on A549 NSCLC, greater than 100 µM; with K-562 leukemia, 24.7 µM; in the test on A498 renal, 25.9 µM; in the test with CCRF-CEM leukemia, greater than 100 µM; in the test on OVCAR-8 ovarian it was 17.5 µM. Besides, the TGI in the test on HCT-15 colon stood at 18.3 µM; in the test on T-47D breast, 7.88 µM; with SK-MEL-2 melanoma, 7.88 µM; in the test with PC-3 prostate, 32.6 µM.

With `O=C1c2cccnc2-c2nc(-c3ccccn3)cc3c2c1nc1ccccc13`, the GI50 in the test with HCT-116 colon was 0.0885 µM; in the test on A549 NSCLC it was 1.38 µM; in the test with K-562 leukemia it was 0.136 µM; in the test with A498 renal, 0.481 µM; in the test with CCRF-CEM leukemia, 0.0619 µM; with OVCAR-8 ovarian, 0.15 µM. In addition, the GI50 was less than 0.0209 µM with HCT-15 colon, 0.601 µM in the test with T-47D breast, 1.06 µM with SK-MEL-2 melanoma and 0.557 µM with PC-3 prostate. Further, the TGI stood at 0.332 µM in the test with HCT-116 colon; 3.39 µM in the test with A549 NSCLC; 0.632 µM with K-562 leukemia; 1.5 µM in the test with A498 renal; 0.402 µM in the test on OVCAR-8 ovarian; 0.259 µM with HCT-15 colon. Besides, the TGI in the test with T-47D breast was determined as 11.9 µM; with SK-MEL-2 melanoma, 2.52 µM; in the test on PC-3 prostate, 1.85 µM.

As for `COC(=O)c1ccc(-c2nc3cc(F)c(F)cc3nc2C#N)cc1`, the GI50 is 7.84 µM in the test with HCT-116 colon; 10.8 µM in the test on A549 NSCLC; 1.9 µM in the test on K-562 leukemia; 14.4 µM in the test on A498 renal; 2.27 µM in the test with CCRF-CEM leukemia; 4.65 µM with OVCAR-8 ovarian. For the same compound, the GI50 with HCT-15 colon is 1.59 µM; with T-47D breast, 12.8 µM; in the test on SK-MEL-2 melanoma, 14.9 µM; in the test on PC-3 prostate it was 11.7 µM. The TGI in the test on HCT-116 colon was 14.6 µM; in the test on A549 NSCLC, 25.6 µM; with K-562 leukemia it was 16.3 µM; in the test with A498 renal, 23.9 µM; with CCRF-CEM leukemia it was 18.7 µM; in the test on OVCAR-8 ovarian, 13 µM. For the same compound, the TGI turned out to be 6.47 µM with HCT-15 colon, 32 µM in the test with T-47D breast, 46.7 µM in the test on SK-MEL-2 melanoma and 26.6 µM with PC-3 prostate.

For the compound `C=C1C(=O)O[C@H]2[C@H]1CC/C(COC(=O)/C=C/c1cccnc1)=C\CC[C@@]1(C)O[C@@H]21`, the GI50 was 0.371 µM in the test with HCT-116 colon; 9.86 µM in the test on A549 NSCLC; 1.04 µM with K-562 leukemia; 4.11 µM in the test on A498 renal; 0.338 µM in the test on CCRF-CEM leukemia; 3.85 µM in the test on OVCAR-8 ovarian. In addition, the GI50 in the test with HCT-15 colon is 1.11 µM; with T-47D breast, 1.88 µM; in the test with SK-MEL-2 melanoma, 3.88 µM; in the test on PC-3 prostate it was 8.28 µM. Besides, the TGI in the test on HCT-116 colon is 1.52 µM; in the test on A549 NSCLC, 23.6 µM; with K-562 leukemia, 6.13 µM; in the test on A498 renal, 16.3 µM; with CCRF-CEM leukemia, 3.73 µM; in the test with OVCAR-8 ovarian, 13.9 µM. The TGI was determined as 2.71 µM with HCT-15 colon, 5.12 µM with T-47D breast, 12.7 µM with SK-MEL-2 melanoma and 22.1 µM with PC-3 prostate.

`O=C(O)CSCC(=O)c1ccccc1`: the TGI in the test with HCT-116 colon, with A549 NSCLC, in the test on K-562 leukemia, in the test with A498 renal, with OVCAR-8 ovarian and in the test on HCT-15 colon was greater than 100 µM throughout. The TGI with T-47D breast, with SK-MEL-2 melanoma and in the test on PC-3 prostate was greater than 100 µM in each case.

On to `COc1cccc2c(Nc3ccc(C(=O)NCCNCCO)cc3)cc(-c3ccccc3)nc12`, for which the GI50 with HCT-116 colon is 34.6 µM; in the test with A549 NSCLC, greater than 100 µM; with K-562 leukemia it was 22.3 µM; in the test on A498 renal, 62.5 µM; with CCRF-CEM leukemia it was 20.2 µM; with OVCAR-8 ovarian, 42.2 µM. The GI50 in the test on HCT-15 colon is 12.2 µM; in the test on T-47D breast, 23 µM; in the test on SK-MEL-2 melanoma, 19.5 µM; with PC-3 prostate, 35.4 µM. Also, the TGI with HCT-116 colon was greater than 100 µM; in the test with A549 NSCLC it was greater than 100 µM; with K-562 leukemia, 64.9 µM; with A498 renal, greater than 100 µM; with CCRF-CEM leukemia, 48.3 µM; with OVCAR-8 ovarian, greater than 100 µM. In addition, the TGI with HCT-15 colon is greater than 100 µM; in the test on T-47D breast, 62 µM; with SK-MEL-2 melanoma, 40.8 µM; in the test with PC-3 prostate it was greater than 100 µM.

Turning to `NCCCn1c2c(c3ccccc3c1=O)C(=O)c1cc3c(cc1-2)OCO3`, the GI50 was 0.213 µM in the test with HCT-116 colon; 0.0273 µM with A549 NSCLC; 0.2 µM in the test on K-562 leukemia; 0.0271 µM with CCRF-CEM leukemia; 0.173 µM in the test on OVCAR-8 ovarian; 0.101 µM in the test on HCT-15 colon. Moreover, the figures for the GI50 in the test with T-47D breast, in the test on SK-MEL-2 melanoma and in the test on PC-3 prostate were 0.407 µM, 3.47 µM and 1.22 µM, respectively. Also, the TGI in the test with A549 NSCLC worked out at 0.658 µM; in the test on K-562 leukemia it was 4.23 µM; with CCRF-CEM leukemia, 0.187 µM; with HCT-15 colon it was 0.882 µM; with T-47D breast, 3.66 µM; in the test with SK-MEL-2 melanoma, 12.8 µM. Also, the TGI with PC-3 prostate is 7.41 µM.

Consider `CC(C)(C)[Si](C)(C)OC1[C@@H](O[Si](C)(C)C(C)(C)C)[C@@H](CNC(=O)NC(=O)NC(=O)CI)O[C@H]1n1cnc2c(NC(=O)Nc3ccccc3)ncnc21` (some centres undefined), for which the GI50 in the test on HCT-116 colon was 2.82 µM; in the test on A549 NSCLC it was 1.57 µM; in the test on K-562 leukemia, 3.55 µM; in the test with A498 renal, 3.61 µM; in the test with CCRF-CEM leukemia it was 0.0301 µM; in the test with OVCAR-8 ovarian it was 0.275 µM. Further, the GI50 in the test with HCT-15 colon is 9.81 µM; in the test with T-47D breast it was 9.63 µM; in the test on SK-MEL-2 melanoma, 8.07 µM; in the test with PC-3 prostate, 0.385 µM. The TGI is 9.08 µM with HCT-116 colon; 11.9 µM in the test on A549 NSCLC; 8.5 µM in the test with K-562 leukemia; 11.4 µM with A498 renal; 0.102 µM with CCRF-CEM leukemia; 0.925 µM in the test with OVCAR-8 ovarian. Also, the TGI in the test with HCT-15 colon was found to be 31.8 µM; in the test on T-47D breast it was 28 µM; with SK-MEL-2 melanoma, 17.7 µM; in the test with PC-3 prostate, 3.42 µM.
